Results reported in US8298798B2, “Production of C5-C8 alcohols using evolved enzymes and metabolically engineered microorganisms” (The Regents of the University of California, priority 2008, dated 2012).

Molecular target: F381L/V461A KIVD (Lactococcus lactis, UniProt A0A0B8QZ66, form not given/V461A)
Experiment: coupled enzymatic assay of KIVD decarboxylation activity
Format: biochemical
Conditions: substrate of V461A/F381L KIVD, 30° C., pH 6.8
Excerpt: Protein Expression and Purification. Both gene fragments encoding wild type and F381L/V461A KIVD were amplified from plasmid pZE_LeuABCDKA6 using primers hiskivd_tevfwd and hiskivd_bamrev. After digestion with BamHI, the gene fragments were inserted into expression plasmid pQE9 (Qiagen) to yield pQE_hiskivd_wt and pQE_hiskivd_FL. The ADH6 gene fragment was amplified from yeast genomic DNA using primers hisadh_tevfwd and hisadh_bamrev, digested with BamHI and inserted into pQE9 to generate pQE_hisadh6. Similarly, genes encoding G462D and G462D/S139G LeuA were amplified from plasmid pZE_LeuABCDKA6 using primers hisleua_tevfwd and hisleua_bamrev. After digestion with BamHI, the PCR products were ligated into pQE9 to create pQE_hisleua_GD and pQE_hisleua_GS. […]
Enzymatic Assay of KIVD. […] Inc. Protein concentration was determined by measuring UV absorbance at 280 nm. The decarboxylation activity of KIVD was measured at 30° C. using a coupled enzymatic assay method. […] The reactions were started by adding 2 μl KIVD (final concentration: for KIV, 20 nM wt KIVD, 200 nM F381L/V461A KIVD; for KHV, 50 nM both), and the consumption of NADPH was monitored at 340 nm (extinction coefficient, 6.22 mM^−1 cm^−1). Kinetic parameters (kcat and Km) were determined by fitting initial velocity data to the Michaelis-Menten equation using Origin.

| SMILES | Km [mM] |
| --- | --- |
| CC(C)C(=O)C(=O)O [2-Ketoisovalerate] | 7.7 |
| CC[C@H](C)CC(=O)C(=O)O [(S)-2-keto-4-methylhexanoate] | 0.22 |
